Activity calls are given as the source filed them. The calls are words filed in the database; no cut-off is given here.
Legend:
[1] = biological target: Cholinesterase (Mus musculus) (UniProt Q03311); assay: Inhibition of cholinesterase in mouse skeletal muscle at 2 uM/ml; format: tissue-based; conditions: Muscle tissue
[2] = biological target: Cholinesterase (Mus musculus) (UniProt Q03311); assay: Inhibition of cholinesterase in mouse skeletal muscle at 10 uM/ml; conditions: Muscle tissue

Cholinesterase (Mus musculus), sequence (Q03311 whole entry): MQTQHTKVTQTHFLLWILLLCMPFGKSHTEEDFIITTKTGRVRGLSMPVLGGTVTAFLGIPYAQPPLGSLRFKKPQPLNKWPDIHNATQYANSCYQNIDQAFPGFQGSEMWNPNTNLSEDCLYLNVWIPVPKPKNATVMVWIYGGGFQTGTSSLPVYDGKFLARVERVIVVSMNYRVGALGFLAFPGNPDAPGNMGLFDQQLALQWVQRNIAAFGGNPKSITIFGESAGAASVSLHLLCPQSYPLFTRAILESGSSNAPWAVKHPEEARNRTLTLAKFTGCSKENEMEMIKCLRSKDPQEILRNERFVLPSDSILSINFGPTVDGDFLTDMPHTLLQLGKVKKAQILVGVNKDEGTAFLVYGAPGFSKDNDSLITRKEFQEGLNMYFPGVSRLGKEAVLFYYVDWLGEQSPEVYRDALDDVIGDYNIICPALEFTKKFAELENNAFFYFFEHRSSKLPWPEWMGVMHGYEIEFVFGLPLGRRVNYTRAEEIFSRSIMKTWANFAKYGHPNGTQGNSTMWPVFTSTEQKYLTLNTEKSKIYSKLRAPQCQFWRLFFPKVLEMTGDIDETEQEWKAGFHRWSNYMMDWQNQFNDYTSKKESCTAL

C=C[C@@H]1[C@H]2C=C(C)C[C@]1(NC)c1ccc(=O)[nH]c1C2
Activity [1]: Active

C=C[C@@H]1[C@H]2C=C(C)C[C@]1(N(C)C)c1ccc(=O)[nH]c1C2
Activity [2]: inactive

Source: ChEMBL document CHEMBL1149073, “Alkaloids from Lycopodium casuarinoides” (J Nat Prod, 1994)
